Data published in patent US10517889B2, “Modulators of SMAD7 expression” (Ionis Pharmaceuticals, Inc., priority 2017, dated 2019).
Strand notation (5' to 3'): a small letter for the sugar, then the base; units joined by * are phosphorothioate-linked, units joined directly phosphodiester-linked; [ ] holds rarer units or linkages, { } end groups; capitals alone tell only the bases. k = constrained ethyl (cEt); [5mC] = 5-methylcytosine; d = 2'-deoxy (DNA)

Test system: human SMAD7 mRNA
Test: Antisense inhibition of human SMAD7 mRNA expression in Hep3B cells by 3-10-3 cEt gapmers, 10,000 nM, electroporation (Example 2)
Type: cell-based
Details: Hep3B cells, electroporation with 10,000 nM antisense oligonucleotide, approximately 24 hours, RTS5062, percent inhibition of SMAD7 mRNA relative to untreated control cells
Procedure, shortened: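 Percent inhibition of SMAD7 mRNA, relative to untreated cells, after ~24 h exposure of electroporated Hep3B cells to 10,000 nM cEt gapmer; levels by qRT-PCR, corrected for total RNA.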

| Substance | % Inhibition [%] |
| --- | --- |
| 799725 (antisense kG*kG*k[5mC]*d[5mC]*dA*d[5mC]*dT*dG*d[5mC]*dA*dG*d[5mC]*d[5mC]*k[5mC]*kT*kA) [compound 799725] | 0 |
| 799726 (antisense kG*kT*kA*dT*d[5mC]*d[5mC]*dT*dT*dT*d[5mC]*dA*d[5mC]*dG*kA*kG*kG) [compound 799726] | 49 |
| 799727 (antisense kT*kG*kA*d[5mC]*dA*dG*dT*dA*dG*dG*d[5mC]*dA*dG*kG*k[5mC]*kA) [compound 799727] | 22 |
| 799728 (antisense k[5mC]*kG*kG*dA*dG*dA*dG*dG*dA*dA*dG*d[5mC]*d[5mC]*kT*k[5mC]*kT) [compound 799728] | 37 |
| 799729 (antisense kT*kA*kT*d[5mC]*dT*dT*d[5mC]*d[5mC]*d[5mC]*dG*d[5mC]*dT*dG*kA*kA*kA) [compound 799729] | 52 |
| 799730 (antisense kT*kA*kA*dA*dT*dT*dG*dA*dG*dA*dA*d[5mC]*dT*kG*kT*kG) [compound 799730] | 60 |
| 799741 (antisense kA*kG*kT*dT*dA*dT*d[5mC]*dA*d[5mC]*d[5mC]*d[5mC]*dT*dG*kT*kT*kT) [compound 799741] | 32 |
| 799742 (antisense kA*kT*kA*dT*dT*dT*d[5mC]*d[5mC]*dT*dG*dT*dT*dA*kA*k[5mC]*kT) [compound 799742] | 23 |
| 799744 (antisense kA*kA*kA*dG*dA*dA*dA*dA*dT*dG*dG*d[5mC]*d[5mC]*kT*kA*k[5mC]) [compound 799744] | 1 |
| 799745 (antisense kG*kG*k[5mC]*dA*dG*dT*dT*dA*dA*d[5mC]*dA*dT*dT*kT*k[5mC]*kA) [compound 799745] | 43 |
| 799746 (antisense kA*kA*kT*dG*dG*dG*dA*dA*dA*dT*dA*dA*dG*kG*k[5mC]*kG) [compound 799746] | 59 |
| 799747 (antisense kA*kA*kA*dT*dG*dG*dG*dA*dA*dA*dT*dA*dA*kG*kG*k[5mC]) [compound 799747] | 43 |
| 799748 (antisense kG*k[5mC]*kT*dG*dA*dA*dA*dA*dA*dG*dT*d[5mC]*dA*kT*kG*kA) [compound 799748] | 51 |
| 799749 (antisense kT*kG*k[5mC]*dT*dT*dG*dG*d[5mC]*d[5mC]*dT*dT*dA*d[5mC]*k[5mC]*kA*kT) [compound 799749] | 17 |
| 799750 (antisense kA*kG*k[5mC]*d[5mC]*dA*dA*dG*dA*dG*d[5mC]*dT*dG*d[5mC]*kT*kT*kG) [compound 799750] | 0 |
| 799761 (antisense kT*kG*kT*d[5mC]*dA*dT*dT*dA*dG*dA*dA*d[5mC]*dA*kA*kT*kG) [compound 799761] | 35 |
| 799762 (antisense kG*kT*k[5mC]*d[5mC]*dT*dA*dA*dA*dG*dA*d[5mC]*dG*dG*k[5mC]*kT*k[5mC]) [compound 799762] | 21 |
| 799763 (antisense kT*kG*kT*d[5mC]*d[5mC]*dT*dA*dA*dA*dG*dA*d[5mC]*dG*kG*k[5mC]*kT) [compound 799763] | 50 |
| 799764 (antisense kA*k[5mC]*kG*d[5mC]*dT*dA*dA*dG*dG*dA*dA*dA*dA*kA*kG*k[5mC]) [compound 799764] | 19 |
| 799765 (antisense kA*kA*kG*d[5mC]*dA*d[5mC]*dG*d[5mC]*dT*dA*dA*dG*dG*kA*kA*kA) [compound 799765] | 23 |
| 799766 (kA*kA*kA*d[5mC]*dA*dA*dA*dG*d[5mC]*dA*d[5mC]*dG*d[5mC]*kT*kA*kA; antisense) [compound 799766] | 35 |
| 799767 (kT*k[5mC]*kT*dG*dT*dT*dT*dG*dG*dA*d[5mC]*dA*dA*kG*kT*kT; antisense) [compound 799767] | 47 |
| 799768 (k[5mC]*kA*k[5mC]*d[5mC]*dA*dA*d[5mC]*d[5mC]*dT*d[5mC]*dT*dG*dT*kG*kG*kG; antisense) [compound 799768] | 0 |
| 799769 (k[5mC]*k[5mC]*kA*d[5mC]*d[5mC]*dA*dA*d[5mC]*d[5mC]*dT*d[5mC]*dT*dG*kT*kG*kG; antisense) [compound 799769] | 0 |
| 799770 (kG*kT*kT*dT*d[5mC]*d[5mC]*dA*dA*dG*dG*d[5mC]*d[5mC]*dG*kG*k[5mC]*kG; antisense) [compound 799770] | 50 |
| 799782 (k[5mC]*kA*kT*dA*dA*dT*dA*dG*dG*dT*dG*dT*d[5mC]*kA*kA*kT; antisense) [compound 799782] | 4 |
| 799783 (kG*k[5mC]*kA*d[5mC]*dA*dT*dA*dA*dT*dA*dG*dG*dT*kG*kT*k[5mC]; antisense) [compound 799783] | 24 |
| 799784 (k[5mC]*kA*kG*dG*dA*dA*d[5mC]*dT*dG*dG*dT*d[5mC]*d[5mC]*kT*k[5mC]*kT; antisense) [compound 799784] | 19 |

Same assay, conditions: Hep3B cells, electroporation, 10,000 nM antisense oligonucleotide, approximately 24 hours, RTS5062, relative to untreated control cells

| Substance | % inhibition of SMAD7 mRNA expression [%] |
| --- | --- |
| 799731 (antisense k[5mC]*kT*kT*dT*d[5mC]*dT*dT*dG*dG*dT*dG*dT*dG*kT*kT*kA) [compound 799731] | 37 |
| 799732 (antisense kG*kG*kG*dA*dT*d[5mC]*dA*dG*dG*dT*dG*dA*dG*kT*kG*kT) [compound 799732] | 48 |
| 799733 (antisense kG*kT*kT*dT*dA*dG*dG*dT*dA*dG*dA*dG*dT*kG*kG*k[5mC]) [compound 799733] | 27 |
| 799735 (antisense kT*k[5mC]*k[5mC]*dA*d[5mC]*dG*dG*dG*dA*dG*dT*dG*dG*kA*kA*kG) [compound 799735] | 0 |
| 799736 (antisense kT*kT*k[5mC]*dT*dA*d[5mC]*dA*d[5mC]*d[5mC]*dT*dT*dT*dT*kA*kA*kG) [compound 799736] | 56 |
| 799737 (antisense k[5mC]*kT*kT*dA*dG*dA*dG*dT*dA*dT*dA*dA*dA*kT*kA*k[5mC]) [compound 799737] | 5 |
| 799738 (antisense kT*k[5mC]*kA*dA*dA*dA*dA*dA*dT*dG*dT*d[5mC]*d[5mC]*k[5mC]*k[5mC]*kA) [compound 799738] | 50 |
| 799739 (antisense k[5mC]*kA*k[5mC]*d[5mC]*d[5mC]*d[5mC]*dT*dA*dT*d[5mC]*dA*dA*dA*kA*kA*kA) [compound 799739] | 0 |
| 799740 (antisense kT*kT*kA*dA*dA*dT*dA*dA*d[5mC]*dT*dG*dT*d[5mC]*k[5mC]*kT*k[5mC]) [compound 799740] | 48 |
| 799752 (antisense kT*kT*kA*dA*dA*dA*d[5mC]*dT*dG*dA*dG*d[5mC]*dT*kA*kA*kT) [compound 799752] | 0 |
| 799754 (antisense kG*kG*k[5mC]*dT*dA*dA*dG*dT*dG*d[5mC]*d[5mC]*dA*dG*kG*kT*kG) [compound 799754] | 0 |
| 799756 (antisense k[5mC]*kA*kG*dG*dG*d[5mC]*dA*dG*d[5mC]*dT*d[5mC]*d[5mC]*dG*kA*kG*kA) [compound 799756] | 44 |
| 799757 (antisense k[5mC]*k[5mC]*kG*dT*dT*dA*d[5mC]*dT*dG*dG*dA*d[5mC]*dA*k[5mC]*kA*kG) [compound 799757] | 41 |
| 799758 (antisense k[5mC]*kA*k[5mC]*d[5mC]*dG*dT*dT*dA*d[5mC]*dT*dG*dG*dA*k[5mC]*kA*k[5mC]) [compound 799758] | 57 |
| 799760 (antisense kT*kT*k[5mC]*dT*dA*dG*dG*dT*dG*dA*dA*d[5mC]*d[5mC]*kA*kT*kA) [compound 799760] | 58 |
| 799771 (kG*k[5mC]*kA*dT*dA*dT*dG*d[5mC]*d[5mC]*dA*d[5mC]*dT*dG*kA*kG*kA; antisense) [compound 799771] | 0 |
| 799772 (k[5mC]*kG*k[5mC]*d[5mC]*dG*d[5mC]*dG*dG*d[5mC]*dA*dT*dA*dT*kG*k[5mC]*k[5mC]; antisense) [compound 799772] | 30 |
| 799773 (k[5mC]*kG*k[5mC]*dT*dA*dG*dG*dT*d[5mC]*dA*d[5mC]*dA*d[5mC]*kT*k[5mC]*kA; antisense) [compound 799773] | 43 |
| 799774 (kG*k[5mC]*k[5mC]*d[5mC]*dT*dG*dT*dT*d[5mC]*dT*dG*d[5mC]*dG*k[5mC]*kT*kA; antisense) [compound 799774] | 0 |
| 799775 (kA*k[5mC]*kA*d[5mC]*dA*dA*dG*dA*dG*dG*dG*dA*dA*kG*k[5mC]*k[5mC]; antisense) [compound 799775] | 22 |
| 799776 (k[5mC]*kA*kG*dA*dA*dG*dG*dA*d[5mC]*d[5mC]*dA*dA*dG*kT*k[5mC]*k[5mC]; antisense) [compound 799776] | 11 |
| 799777 (kA*kG*kT*d[5mC]*dA*dG*d[5mC]*d[5mC]*dA*dG*dA*dA*dG*kG*kA*k[5mC]; antisense) [compound 799777] | 34 |
| 799778 (kG*k[5mC]*kA*d[5mC]*dA*d[5mC]*d[5mC]*dT*dT*d[5mC]*d[5mC]*dA*dA*kG*k[5mC]*kA; antisense) [compound 799778] | 10 |
| 799779 (kT*kA*kA*dA*d[5mC]*dA*dA*dA*d[5mC]*d[5mC]*dA*d[5mC]*dA*kG*kG*kG; antisense) [compound 799779] | 19 |
| 799780 (k[5mC]*k[5mC]*kA*dT*dA*dA*dA*d[5mC]*dA*dA*dA*d[5mC]*d[5mC]*kA*k[5mC]*kA; antisense) [compound 799780] | 28 |
